Data set [1] concerns the target T1, Renin (Homo sapiens, UniProt P00797).
T1 sequence (P00797 whole entry): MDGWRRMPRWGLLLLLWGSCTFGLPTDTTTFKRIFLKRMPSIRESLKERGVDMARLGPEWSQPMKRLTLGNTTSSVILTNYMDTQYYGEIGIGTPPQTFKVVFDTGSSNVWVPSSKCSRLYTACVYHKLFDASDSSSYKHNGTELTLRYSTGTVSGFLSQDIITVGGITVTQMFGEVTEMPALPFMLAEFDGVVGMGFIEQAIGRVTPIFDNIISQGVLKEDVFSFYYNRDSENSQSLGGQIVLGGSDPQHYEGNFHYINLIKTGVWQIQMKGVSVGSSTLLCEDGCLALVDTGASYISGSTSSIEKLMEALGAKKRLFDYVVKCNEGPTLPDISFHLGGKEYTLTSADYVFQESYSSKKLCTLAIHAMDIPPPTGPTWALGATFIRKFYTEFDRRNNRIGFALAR
In words: Inhibition of human recombinant renin expressed in FreeStyle 293 expression system using FITC-epsilonAcp-Asp-Arg-Val-Tyr-Ile-His-Pro-Phe-His-Leu-Val-Ile-His-Asn-Arg-NH2 as substrate preincubated for 15 mins followed by substrate addition measured after 30 mins by microchip type capillary electrophoresis method.

A short description of data set [2]: Intrinsic clearance in human liver microsomes assessed per mg of protein at 1 umol/l after 15 to 30 mins in presence of NADPH-generating system by LC/MS/MS analysis. It counts as ADME. The conditions noted are these: read-out: CLH. A general note: Microsomes from liver hold many membrane-bound enzymes, among them those of drug oxidation.
Data set [3] concerns the target hERG (KCNH2) (Homo sapiens, UniProt Q12809). Description: Inhibition of human ERG expressed in CHO cells assessed as suppression of peak tail currents incubated for 5 mins by patch clamp method. It counts as cell-based. To be noted: CHO cells that express human ERG. On the technique in general: Patch clamp records ionic current or voltage across a cell membrane.
Data set [4] has as its target CYP3A4 (Homo sapiens, UniProt P08684). In words: Inhibition of CYP3A4 in human liver microsomes using testosterone as substrate assessed as 6beta-hydroxytestosterone formation at 10 uM after 60 mins by LC/MS/MS analysis relative to control. The conditions noted are these: probe testosterone. It is filed as ADME.
Data set [5] can be described thus: Aqueous solubility of the compound in pH 6.8 Japanese pharmacopoeia second fluid by HPLC analysis. It counts as ADME.
Data set [6] in a line: Cytotoxicity against human HepG2 cells assessed as ATP contents at 30 uM after 1 day by ATPLiteTM-M assay relative to control. It is filed as toxicity, cell-based. The conditions noted are these: read-out: Activity.
Data set [7] has as its target T2, Renin (Homo sapiens) (UniProt P00797).
T2 sequence (whole entry): T1 sequence (P00797 whole entry)
In words: Inhibition of human recombinant renin expressed in FreeStyle 293 expression system at 100 uM using FITC-epsilonAcp-Asp-Arg-Val-Tyr-Ile-His-Pro-Phe-His-Leu-Val-Ile-His-Asn-Arg-NH2 as substrate preincubated for 15 mins followed by substrate addition measured after 30 mins by microchip type capillary electrophoresis method relative to control.

≈ marks a conversion by molar mass, not a printed value.

hERG (KCNH2), sequence (Q12809 whole entry): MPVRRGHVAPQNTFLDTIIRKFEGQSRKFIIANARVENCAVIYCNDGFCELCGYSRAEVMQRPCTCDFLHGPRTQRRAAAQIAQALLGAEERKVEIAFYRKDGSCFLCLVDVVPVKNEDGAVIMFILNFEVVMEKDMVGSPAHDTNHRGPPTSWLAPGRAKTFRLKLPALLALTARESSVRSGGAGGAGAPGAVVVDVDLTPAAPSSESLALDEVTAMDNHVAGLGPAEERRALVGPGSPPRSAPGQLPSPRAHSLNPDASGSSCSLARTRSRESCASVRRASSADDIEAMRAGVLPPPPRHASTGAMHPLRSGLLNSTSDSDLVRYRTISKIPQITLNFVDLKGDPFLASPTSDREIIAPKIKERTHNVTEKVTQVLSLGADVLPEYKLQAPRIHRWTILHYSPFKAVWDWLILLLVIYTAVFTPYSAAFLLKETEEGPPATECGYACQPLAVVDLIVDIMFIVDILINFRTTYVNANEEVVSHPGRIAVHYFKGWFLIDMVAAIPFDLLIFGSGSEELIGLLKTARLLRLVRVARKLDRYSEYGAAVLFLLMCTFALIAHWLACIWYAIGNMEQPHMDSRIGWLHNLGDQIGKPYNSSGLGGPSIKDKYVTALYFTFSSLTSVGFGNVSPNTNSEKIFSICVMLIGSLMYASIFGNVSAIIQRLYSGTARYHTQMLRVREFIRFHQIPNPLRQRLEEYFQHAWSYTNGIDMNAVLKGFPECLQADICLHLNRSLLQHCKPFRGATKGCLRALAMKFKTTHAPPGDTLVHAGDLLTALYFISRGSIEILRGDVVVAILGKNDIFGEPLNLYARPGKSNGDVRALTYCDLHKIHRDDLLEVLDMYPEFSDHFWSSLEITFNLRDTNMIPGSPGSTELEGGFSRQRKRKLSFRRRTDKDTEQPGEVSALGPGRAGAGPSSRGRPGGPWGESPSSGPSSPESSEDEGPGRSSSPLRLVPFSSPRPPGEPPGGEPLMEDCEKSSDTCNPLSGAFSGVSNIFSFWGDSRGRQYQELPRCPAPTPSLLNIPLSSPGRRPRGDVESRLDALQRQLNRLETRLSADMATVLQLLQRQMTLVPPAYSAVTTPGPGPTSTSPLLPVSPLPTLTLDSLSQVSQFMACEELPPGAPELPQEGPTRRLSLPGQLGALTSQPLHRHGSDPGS
CYP3A4, sequence (P08684 whole entry): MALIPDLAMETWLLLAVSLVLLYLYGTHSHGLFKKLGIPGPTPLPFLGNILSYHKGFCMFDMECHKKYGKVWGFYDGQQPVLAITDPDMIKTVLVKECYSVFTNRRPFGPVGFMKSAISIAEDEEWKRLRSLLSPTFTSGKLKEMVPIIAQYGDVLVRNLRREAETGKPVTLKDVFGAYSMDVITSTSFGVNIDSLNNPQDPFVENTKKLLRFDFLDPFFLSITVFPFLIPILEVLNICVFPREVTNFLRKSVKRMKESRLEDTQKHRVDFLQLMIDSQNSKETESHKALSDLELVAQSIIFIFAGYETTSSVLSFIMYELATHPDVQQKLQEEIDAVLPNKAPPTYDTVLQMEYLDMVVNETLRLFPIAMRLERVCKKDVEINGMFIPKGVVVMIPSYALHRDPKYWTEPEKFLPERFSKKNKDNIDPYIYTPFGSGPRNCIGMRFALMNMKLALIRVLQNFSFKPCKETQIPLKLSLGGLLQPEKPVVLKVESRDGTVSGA

In the case of `NCc1ccco1`, the IC50 in data set [1] is above 300 µM.

In the case of `Cc1ccc(C(=O)N2CCCCCC2)c(NCc2ccco2)n1`, in data set [2], the microsomal CLint at 1 µM turned out to be 85 µL/min/mg. The inhibition at 5 min in data set [3] was determined as 7.5%. In addition, in data set [4], the inhibition at 1 h, 10 µM amounted to 35.6%. This compound registered a solubility in data set [5] of 50 µg/mL (≈ 160 µM). Moreover, the viability at 24 h, 30 µM in data set [6] was 91.6%. Moreover, the inhibition in data set [7] was 70%.

Take `Cc1ccc(C(=O)NC(C)(C)c2ccccc2)c(NCc2ccco2)n1`: the inhibition in data set [7] was below 30%.

On to `c1coc(CNc2ncnc3sc4c(c23)CCCC4)c1`, for which the microsomal CLint at 1 µM in data set [2] stood at 187 µL/min/mg. The inhibition at 5 min in data set [3] turned out to be 62.8%. In data set [4], the inhibition at 1 h, 10 µM is 70.2%. Moreover, the concentration in solution in data set [5] (solubility) came to 5.2 µg/mL (≈ 18.2 µM). In data set [6], the viability at 24 h, 30 µM turned out to be 31.4%.

In the case of `CCC1CCCCN1C(=O)c1ccc(C)nc1NCc1ccco1` (stereo not drawn), in data set [1], the IC50 was 11 µM. For the same compound, the inhibition in data set [7] is 86%.

As to `Nc1ncnc2sc3c(c12)CCCC3`, the IC50 in data set [1] was above 300 µM.

For the compound `Clc1cncc(NCc2ccco2)n1`, the inhibition in data set [7] amounted to 65%.

For the compound `CCN(CC)C(=O)c1ccc(C)nc1NCc1ccco1`, in data set [7], the inhibition came to 31%.

As usually defined, the IC50 is the concentration that gives 50% inhibition. As a reminder, the inhibition is how much of the control response was suppressed. One may read the solubility as the concentration that dissolves in the medium under given conditions. High values mean much dissolved substance, low ones little dissolved substance.

For the origin of these results see ChEMBL document CHEMBL3856281, “Novel approach of fragment-based lead discovery applied to renin inhibitors” (Bioorg Med Chem, 2016).
